Paper PMC13032676, “PGM1 deficiency is linked to sarcomeric and mitochondrial dysfunction in patient-derived iPSC-cardiomyocytes” (Journal of Translational Medicine, 2026)
“Also recorded” adds a separate entry of the source.

What was measured:
human PGM1 = target: T1, human PGM1 (Homo sapiens, UniProt P36871); test: Microscale-thermophoresis binding of ZM peptides to PGM1; settings: His6-PGM1 labeled with RED-tris-NTA, 50 nM labeled PGM1, peptide 375 mM to 11.4 nM (16-step series), 10 min in the dark, 22 °C, 40% excitation power, 40% MST power, MO.Affinity v.2.2.4
T1 construct: made in house
T1 sequence (P36871 1-562): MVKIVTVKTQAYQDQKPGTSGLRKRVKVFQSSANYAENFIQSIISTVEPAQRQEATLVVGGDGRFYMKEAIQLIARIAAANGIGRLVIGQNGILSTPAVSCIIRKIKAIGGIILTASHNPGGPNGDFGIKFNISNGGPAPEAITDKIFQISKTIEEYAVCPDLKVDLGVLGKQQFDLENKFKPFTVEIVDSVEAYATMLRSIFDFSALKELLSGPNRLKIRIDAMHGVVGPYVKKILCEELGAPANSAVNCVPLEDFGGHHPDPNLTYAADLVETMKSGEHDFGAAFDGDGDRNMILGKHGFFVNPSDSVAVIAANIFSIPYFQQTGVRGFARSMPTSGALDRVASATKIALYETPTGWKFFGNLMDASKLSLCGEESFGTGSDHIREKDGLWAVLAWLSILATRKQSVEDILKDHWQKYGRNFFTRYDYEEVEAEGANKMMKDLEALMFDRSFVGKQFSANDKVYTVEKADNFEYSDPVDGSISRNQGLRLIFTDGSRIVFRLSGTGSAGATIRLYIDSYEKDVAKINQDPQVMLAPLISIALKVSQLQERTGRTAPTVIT
From the text: For microscale-thermophoresis studies, a peptide representing the conserved Zasp motif (ZM) of ZASP/Cypher (26-mer: […]) and a corresponding peptide with the T106I mutation (underscored in sequence) were synthesized by ABI Scientific. A vector for recombinant expression of human PGM1 has been previously described. PGM1 was expressed and purified as previously described.
For binding studies, PGM1 was labeled using a commercial kit (NanoTemper Technologies, Inc.) according to the manufacturer’s specifications. Briefly, PGM1 was incubated at room temperature for 30 min with RED-tris-NTA dye, which specifically labels His6 tags, resulting in 100 nM labeled protein. The wild-type and T106I ZM peptides were serially diluted into a series of 16 PCR strip tubes and mixed 1:1 with labeled PGM1. The final concentration series of each peptide was […] to 11.4 nM, with all tubes containing 50 nM labeled PGM1. Samples were incubated in the dark for 10 min prior to use. Standard capillaries (Nanotemper MO-K022) were used to draw up the liquid and placed onto the sample tray of the Monolith NT.115 instrument (NanoTemper). Measurements were performed at 22 °C with control software at 40% excitation power and 40% MST power. Kd values were calculated using the MO. Affinity software v.2.2.4 (NanoTemper Technologies).

PGM1-deficient iCMs = test: Untargeted N-glycoproteomics; assay type: cell-based, human; settings: low galactose in culture medium (in-house estimate 0.5 mM), no galactose-free arm
Protocol: Untargeted proteomics and N-glycoproteomics were performed to assess the (glyco)protein expression changes between PGM1-deficient and CTR iCMs based on previously published protocols (see supplementary materials for details).
Proteomics and N-glycoproteomics data analysis was performed as described previously. The proteomics data were searched using Sequest search engine in Proteome Discoverer 3.0 against the human Uniprot protein database. The N-glycoproteomics data using the publicly available software pGlyco version 3 with an in-built N-glycan database for identifying glycans and human Uniprot protein database for identifying peptide sequence. Two missed cleavages were allowed for both proteomics and glycoproteomics analysis. Error tolerance for precursor and fragment ions were set to 10 ppm and 0.02 Da, respectively, for proteomics and 10 ppm and 20 ppm, respectively, for glycoproteomics. […] For proteomics, quantitation of peptides across PGM1-CDG and […] was done using TMT reporter ion intensities using “reporter ion quantifier” node. To quantify glycopeptides, reporter ion quantification was performed for glycoproteomics raw files in Proteome Discoverer and glycopeptide IDs obtained from pGlyco were matched with quantitation on a scan-to-scan basis (MS/MS). […]

PGM1-CDG individuals = settings: [5], [10], [11], [13] (b5), ref [7], cited from earlier work
[1] = system: PGM1-deficient fibroblasts; settings: ref [5], [61]; cited from earlier work
From the text: First, we performed targeted tracer metabolomics studies of central carbon metabolism. Previously, decreased UDP-Hexose levels were linked to reduced glycosylation in PGM1-CDG, which improve in presence of galactose.

| Compound | in vitro binding affinity to PGM1 (Kd, in words) (human PGM1) | effect on glycosylation (in words) (PGM1-deficient iCMs) | effect on cardiac (and skeletal muscle) manifestations (in words) (PGM1-CDG individuals; galactose therapy in PGM1-CDG, ref [3], [7], [18]) | effect on glycosylation and systemic features (in words) (PGM1-CDG individuals; oral galactose supplementation in PGM1-CDG, ref [1], [3], [12]) | effect on UDP-hexose levels (in words) [1] |
| --- | --- | --- | --- | --- | --- |
| LDB3 T206I mutant: corresponding peptide with the T106I mutation; dilated cardiomyopathy-associated LDB3 T206I mutant peptide (SSQPRQYNNPIGLYSAEILREMAQMY) | substantially reduced binding affinity (high µM) | – | – | – | – |
| O=C[C@H](O)[C@@H](O)[C@@H](O)[C@H](O)CO [galactose] | – | partially restores glycosylation in PGM1-deficient iCMs; also recorded: sufficient to partially restore glycosylation in PGM1-deficient iCMs | fails to ameliorate cardiac and skeletal muscle involvement; also recorded: cardiac involvement does not respond to galactose therapy; also recorded: cardiac manifestations remain largely refractory to treatment | improves systemic features; also recorded: effective correction of glycosylation defects and improvement of systemic clinical features | normalize UDP-hexose levels in PGM1-deficient fibroblasts |
| SSQPRQYNNPIGLYSAETLREMAQMY [wild-type ZM peptide, peptide representing the conserved Zasp motif (ZM) of ZASP/Cypher (26-mer)] | high-affinity binding (low µM) | – | – | – | – |
